Experiment: xn = mol fraction of the nth substance listed
Conditions: 101 kPa, Liquid, Vibrating tube method

Nc1ccccc1 [aniline] + ClCCl
mass density [kg/m3]
Conditions	288.15 K	293.15 K	298.15 K	303.15 K
x2 = 0.0218	1030.69	1025.78	1021.79	1017.43
x2 = 0.1003	1048.42	1043.36	1039.19	1034.68
x2 = 0.2004	1072.39	1067.17	1062.72	1057.97
x2 = 0.2507	1085.02	1079.67	1075.06	1070.21
x2 = 0.2992	1097.6	1092.14	1087.38	1082.37
x2 = 0.3502	1111.25	1105.64	1100.68	1095.52
x2 = 0.3985	1124.6	1118.83	1113.68	1108.38
x2 = 0.4998	1153.99	1147.9	1142.28	1136.65
x2 = 0.5529	1170.24	1164	1158.09	1152.21
x2 = 0.6023	1185.94	1179.46	1173.3	1167.19
x2 = 0.6504	1201.8	1195.11	1188.66	1182.34
x2 = 0.6992	1218.48	1211.56	1204.8	1198.22
x2 = 0.7506	1236.69	1229.48	1222.36	1215.59
x2 = 0.8003	1254.94	1247.49	1239.98	1232.77
x2 = 0.8997	1293.47	1285.36	1277.01	1269.11
x2 = 0.9298	1305.66	1297.3	1288.69	1280.69
x2 = 0.9505	1314.14	1305.64	1296.8	1288.52
x2 = 0.9799	1326.37	1317.62	1308.49	1299.98

ClCCl [dichloromethane] + O=[N+]([O-])c1ccccc1
mass density [kg/m3]
Conditions	288.15 K	293.15 K	298.15 K	303.15 K
x1 = 0.021	1213.16	1204.27	1199.65	1195.1
x1 = 0.1053	1219.99	1211.21	1206.52	1201.87
x1 = 0.2003	1228.35	1219.76	1214.95	1210.13
x1 = 0.2499	1233.02	1224.51	1219.62	1214.69
x1 = 0.3003	1238.01	1229.63	1224.61	1219.55
x1 = 0.3521	1243.35	1235.09	1229.95	1224.73
x1 = 0.4025	1248.78	1240.64	1235.37	1229.98
x1 = 0.4492	1254.01	1245.99	1240.56	1235.01
x1 = 0.4975	1259.65	1251.71	1246.14	1240.37
x1 = 0.5512	1266.13	1258.32	1252.51	1246.51
x1 = 0.5995	1272.2	1264.47	1258.48	1252.21
x1 = 0.6495	1278.7	1271.04	1264.8	1258.26
x1 = 0.6999	1285.45	1277.91	1271.39	1264.55
x1 = 0.7496	1292.42	1284.93	1278.12	1270.91
x1 = 0.799	1299.65	1292.18	1285	1277.46
x1 = 0.8501	1307.44	1299.97	1292.47	1284.49
x1 = 0.8975	1315.12	1307.6	1299.69	1291.27
x1 = 0.9798	1329.58	1321.91	1313.24	1303.98
